Results from publication PMC10714930, “In silico virtual screening for the identification of novel inhibitors against dihydrodipicolinate reductase (DapB) of Mycobacterium tuberculosis, a key enzyme of diaminopimelate pathway” (Microbiology Spectrum, 2023).
Values after ≈ are worked out from the molar mass of the structure shown.

What was measured:
[1] = molecular target: DapA and DapB (purified enzymes) (Mycobacterium tuberculosis, UniProt P9WP25); type: biochemical; conditions: coupled enzyme assay, Michaelis-Menten plot
M. tb DapB = M. tb DapB (Mycobacterium tuberculosis, UniProt P9WP23); assay: Dihydrodipicolinate reductase (DapB)-coupled enzymatic assay; type: biochemical
Experimental: The enzymatic assay of DapB is a coupled assay which requires the upstream enzyme DapA. The formation of tetrahydrodipicolinate by DapB was measured by monitoring conversion of NADPH to NADP^+ spectrophotometrically at 340 nm. The substrate of DapB, i.e., 2,4-dihydrodipicolinic acid, was prepared enzymatically through condensation of Aspartate Semialdehyde [(S)-ASA] and sodium pyruvate by DapA. The standard assay was performed in 50 mM sodium phosphate buffer (pH 7.5) consisting of 400 µM (S)-ASA, 160 µM NADPH, 500 µM sodium pyruvate, 3 µg DapB, and 5 µg DapA in a total reaction volume of 100 µL. […] The decrease in the absorbance of NADPH corresponding to the consumption of substrate was monitored at 340 nm after incubation for 10 minutes at room temperature. […] The activity of DapB in the presence of compounds was measured similarly; however, the enzyme was pre-incubated with the compounds for 10 minutes at 37°C. The percent activity for the samples in the presence of inhibitors was calculated by using a two-step method. Firstly, the absorbance values at 340 nm for each test sample (with or without the inhibitor) were normalized with the negative control (no substrate control). Subsequently, the percent activity was calculated by using the formula (normalized A340nm of inhibitor sample/normalized A340nm of no inhibitor sample) × 100. […]

M. tb H37Rv [2] = assay: M. tb whole cell growth inhibition by resazurin microtiter assay; type: cell-based, Mycobacterium tuberculosis
M. tb H37Rv [3] = assay: Checkerboard assay of B59 with B20; type: cell-based, Mycobacterium tuberculosis
[4] = tested on: M. tb H37Rv inside THP-1 macrophages; assay: Intracellular inhibition assay in THP-1 macrophages; type: cell-based; conditions: Mycobacterium tuberculosis, 120 h, CFU enumeration after 5 days of infection
mycobacterial DapB = tested on: mycobacterial DapB; design: method as in PMID 12962488; conditions: cited from earlier work

Chain of DapA and DapB (purified enzymes) (P9WP25 whole entry, looked up): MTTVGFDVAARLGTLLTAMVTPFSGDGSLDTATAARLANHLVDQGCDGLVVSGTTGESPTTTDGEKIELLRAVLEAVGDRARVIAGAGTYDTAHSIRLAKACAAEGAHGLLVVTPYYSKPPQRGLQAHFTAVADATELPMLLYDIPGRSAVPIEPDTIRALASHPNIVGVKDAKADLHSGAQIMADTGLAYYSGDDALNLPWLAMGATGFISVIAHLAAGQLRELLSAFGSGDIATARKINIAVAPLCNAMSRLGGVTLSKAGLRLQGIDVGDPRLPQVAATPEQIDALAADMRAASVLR
Chain of M. tb DapB (P9WP23 whole entry, looked up): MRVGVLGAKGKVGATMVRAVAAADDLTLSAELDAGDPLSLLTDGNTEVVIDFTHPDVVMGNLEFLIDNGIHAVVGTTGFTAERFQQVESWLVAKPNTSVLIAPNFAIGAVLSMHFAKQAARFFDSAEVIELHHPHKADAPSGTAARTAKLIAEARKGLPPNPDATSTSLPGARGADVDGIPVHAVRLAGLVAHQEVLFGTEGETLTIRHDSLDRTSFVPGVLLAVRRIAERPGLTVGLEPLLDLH

Work on `CC(=O)C(=O)O` [sodium pyruvate] yielded a Km [1] of 125 µM.
For `COC(=O)CCCc1nc2ccccc2nc1N=Nc1ccccc1` [Compound B59, 4-(3-Phenylazoquinoxalin-2-yl) butanoic acid methyl ester], the IC50 (M. tb DapB; IC50 exhibited by compounds in biochemical assay, DapB enzymatic activity, compounds 10-100 µg/mL) was 32.9 µM, the inhibition at 100 µg/mL (M. tb DapB; at 100 µg/mL, read-out: inhibition of DapB enzyme activity) was over 80% and the “MIC99 exhibited by compounds against M. tb growth” value (M. tb H37Rv [2]; M. tb H37Rv, 7 days, resazurin and drop plating) was 20 µg/mL (≈ 59.8 µM). The MIC99 (M. tb H37Rv [2]; Mycobacterium tuberculosis, 168 h, M. tb H37Rv, 7 days, resazurin and drop plating, read-out: MIC99 exhibited by compounds against M. tb growth) was 20 µg/mL (≈ 59.8 µM), the “effect on bacterial growth by CFU enumeration” value (M. tb H37Rv [2]; at 0.5X MIC99 and 0.25X MIC99) was “inhibition of the bacterial growth” and the “fractional inhibitory concentration (FIC)” value (M. tb H37Rv [3]; MIC99 in combination / MIC99 alone) was 0.062. For the same compound, the “MIC99 of B59 in combination” value (M. tb H37Rv [3]; in the presence of 20 µg/mL of compound B20) was 1.25 µg/mL and the MIC90 [4] was 73 µg/mL (≈ 218 µM).
With `N[C@@H](CC=O)C(=O)O` [ASA, L-aspartate-β-semialdehyde] the Km [1] was 345 µM.
For `NC(=O)C1=CN([C@@H]2O[C@H](COP(=O)(O)OP(=O)(O)OC[C@H]3O[C@@H](n4cnc5c(N)ncnc54)[C@H](OP(=O)(O)O)[C@@H]3O)[C@@H](O)[C@H]2O)C=CC1` [NADPH], the Km (mycobacterial DapB) is given as 11.8 ± 1.5 µM.
For `NC(=O)C1=CN([C@@H]2O[C@H](COP(=O)(O)OP(=O)(O)OC[C@H]3O[C@@H](n4cnc5c(N)ncnc54)[C@H](O)[C@@H]3O)[C@@H](O)[C@H]2O)C=CC1` [NADH], the Km (mycobacterial DapB) is given as 3.2 ± 0.4 µM.
